Marks after values point to notes of the source that are not given here.
Assays:
[1] = target: T1, KOR (Homo sapiens, UniProt P41145); assay: High content imaging β-arrestin translocation assay, KOR antagonist (KOR HCS); type: cell-based; details: antagonist; average; read-out: Potency, Target KOR HCS
Text: (§1) In this campaign, two assay platforms were employed to evaluate KOR activity and selectivity: the KOR1 DISCOVERX β-Arrestin […] assay and an imaging based β-arrestin translocation assay for confirmatory and selectivity assays. The KOR1 DISCOVERX β-Arrestin […] assay is a commercial platform for direct measurement of GPCR (G protein-coupled receptor) activation by detection of β-Arrestin binding to the KOR. […] In cells that stably express these fusion proteins, ligand stimulation results in the recruitment of β-Arrestin by the GPCR. This interaction encourages the complementation of the two β-galactosidase fragments resulting in the formation of a functional enzyme that converts substrate in the assay medium to a detectable signal. The imaging based high-content β-arrestin translocation assay is based upon the redistribution of β-Arrestin linked to green fluorescent protein (GFP) to the cell surface and detection (Barak, et al. (1997) J. Biol. Chem. 272:27497-27500).
(§2) Initially, a portion (approximately 290,000 compounds) of the MLSMR compound collection was tested in the KOR1 DISCOVERX β-arrestin primary kappa opioid (KOP) agonist and antagonist screens (PUBCHEM AID 1777 and 1778, respectively) at a single concentration point (10 μM). […] These compounds were concurrently tested in a β-galactosidase counterscreen assay (PUBCHEM AID 1966) to assess the possibility that these compounds might inhibit the reporting enzyme. […] The KOR:DOR:MOR selectivity of the compounds was determined using the analogous β-arrestin translocation assays for the DOR (PUBCHEM AID 2370 and 2357, for agonists and antagonist, respectively) and the MOR (PUBCHEM AID 2352 and 2420, for agonists and antagonists, respectively).

[2] = target: T2, MOR (Homo sapiens, UniProt P35372); assay: High content imaging β-arrestin translocation assay, MOR antagonist (MOR HCS); type: cell-based
T2 sequence (P35372 whole entry): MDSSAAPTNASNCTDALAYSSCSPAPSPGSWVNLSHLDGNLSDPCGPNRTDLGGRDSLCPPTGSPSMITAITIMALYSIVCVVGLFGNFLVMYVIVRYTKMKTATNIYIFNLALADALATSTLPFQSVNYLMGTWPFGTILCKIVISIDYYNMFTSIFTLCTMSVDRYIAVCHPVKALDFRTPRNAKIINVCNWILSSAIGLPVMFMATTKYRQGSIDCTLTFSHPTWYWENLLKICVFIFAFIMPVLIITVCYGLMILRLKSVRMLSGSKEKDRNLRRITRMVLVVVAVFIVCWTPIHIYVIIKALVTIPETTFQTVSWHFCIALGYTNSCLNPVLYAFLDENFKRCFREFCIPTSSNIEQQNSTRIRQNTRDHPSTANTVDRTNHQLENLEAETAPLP
Text: as §1, §2

[3] = target: T3, KOP receptor (Homo sapiens, UniProt P41145); assay: 35S-GTPγS coupling, inhibition; type: biochemical
T3 sequence (P41145 whole entry): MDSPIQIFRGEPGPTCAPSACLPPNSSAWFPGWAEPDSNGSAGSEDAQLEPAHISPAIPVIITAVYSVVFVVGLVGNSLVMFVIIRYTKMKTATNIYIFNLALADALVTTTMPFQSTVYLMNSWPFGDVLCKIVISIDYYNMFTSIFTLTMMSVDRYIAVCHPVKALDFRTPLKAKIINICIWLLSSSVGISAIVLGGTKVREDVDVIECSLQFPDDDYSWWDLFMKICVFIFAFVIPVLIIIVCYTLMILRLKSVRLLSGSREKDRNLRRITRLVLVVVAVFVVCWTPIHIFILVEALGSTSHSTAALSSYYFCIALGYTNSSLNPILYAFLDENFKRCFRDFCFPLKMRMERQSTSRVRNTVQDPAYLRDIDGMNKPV

[4] = target: DOR (Homo sapiens, UniProt P41143); assay: High content imaging β-arrestin translocation assay, DOR antagonist (DOR HCS); type: cell-based
Sequence of DOR (P41143 whole entry): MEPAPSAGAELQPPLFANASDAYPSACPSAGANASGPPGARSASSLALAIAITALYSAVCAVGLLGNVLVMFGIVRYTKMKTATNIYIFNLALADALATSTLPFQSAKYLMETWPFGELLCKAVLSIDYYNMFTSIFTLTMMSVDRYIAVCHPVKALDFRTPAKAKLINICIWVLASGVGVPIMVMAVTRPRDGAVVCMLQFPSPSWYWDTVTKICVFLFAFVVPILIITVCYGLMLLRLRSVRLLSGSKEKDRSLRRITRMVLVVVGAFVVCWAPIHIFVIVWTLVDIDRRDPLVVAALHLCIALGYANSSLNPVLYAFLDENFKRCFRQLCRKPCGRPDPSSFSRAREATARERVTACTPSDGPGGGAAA
Text: as §1, §2

[5] = target: T3, KOP receptor; assay: ERK 1/2 activation, inhibition; type: cell-based
[6] = target: T1, KOR; assay: KOR1 DISCOVERX β-Arrestin […] assay, antagonist mode (KOR DRX); type: cell-based; details: antagonist; average; read-out: Potency, Target KOR DRX
Text: as §1, §2

[7] = target: T1, KOR; assay: High content imaging based β-arrestin translocation assay, KOR agonist (KOR HCS); type: cell-based; details: n = 2, read-out: Average Potency KOR HCS
Text: as §1, §2

[8] = target: T2, MOR; assay: High content imaging based β-arrestin translocation assay, MOR agonist (MOR HCS); type: cell-based; details: n = 2, read-out: Average Potency MOR HCS
Text: as §1, §2

[9] = target: T1, KOR; assay: Binding affinity Ki of Table 9
[10] = target: T1, KOR; assay: DISCOVERX β-arrestin […] assay, agonist mode (KOR DRx); type: cell-based; details: agonist; n = 3; read-out: Average Potency KOR DRx
Text: as §1, with “signal.” for “signal. The imaging based high-content β-arrestin translocation assay is based upon the redistribution of β-Arrestin linked to green fluorescent protein (GFP) to the cell surface and detection (Barak, et al. (1997) J. Biol. Chem. 272:27497-27500).”

T1 sequence (P41145 whole entry, the tested form may be a part): as the sequence (P41145 whole entry) above

| SMILES | IC50 [1] [µM] | IC50 [2] [µM] | Imax (% NBNI) [3] | IC50 ([3]; n ≧ 3 curves in duplicate) [µM] | IC50 [4] [µM] | Imax (% NBNI) [5] | IC50 ([5]; n ≧ 3 curves, replicates of 6) [µM] | IC50 [6] [µM] | EC50 [7] [µM] | EC50 [8] [µM] | Ki [9] [µM] | EC50 [10] [µM] |
| --- | --- | --- | --- | --- | --- | --- | --- | --- | --- | --- | --- | --- |
| COc1ccc(N2CCN(CCCNC(=O)Cn3c(=O)c4cccn4c4ccccc43)CC2)cc1 [Compound 1{1}] | 1.31 | > 32 | 122 ± 5^a % NBNI | 0.0957 ± 0.048 | > 32 | 101 ± 3^ % NBNI | 0.065 ± 0.0092 | 1.97 |  |  |  |  |
| Cc1ccccc1CSc1nnc(-c2ccccn2)n1Cc1cccs1 [Compound 2{36}] |  |  |  |  |  |  |  |  | 14.5 | > 32 | 0.068 | > 16 |
| COc1cccc(CSc2nnc(-c3ccccn3)n2Cc2ccco2)c1 [Compound 2{37}] |  |  |  |  |  |  |  |  | > 32 | > 32 | 0.067 | > 17.6 |
| Fc1cccc(F)c1CSc1nnc(-c2ccccn2)n1Cc1cccs1 [Compound 2{42}] |  |  |  |  |  |  |  |  | 20.9 | > 32 | 0.078 | > 19 |
| Clc1ccccc1CSc1nnc(-c2ccccn2)n1Cc1ccco1 [Compound 2{47}] |  |  |  |  |  |  |  |  | 11.6 | > 32 | 0.106 | 9.07 |

— patent publication US9345703B2, “Kappa opioid receptor effectors and uses thereof” (University of Kansas, priority 2011, dated 2016)
